Reference: publication PMC7756341, “Liposomal FRET Assay Identifies Potent Drug‐Like Inhibitors of the Ceramide Transport Protein (CERT)” (Chemistry (Weinheim an Der Bergstrasse, Germany), 2020)
Several values for one entry are separate records, joined by “and”; a condition that tells them apart may be missing. Identical values can stand only once.

Test system: HeLa cells
Experiment: Sphingolipid content of treated HeLa cells by quantitative mass spectrometry
Type: cell-based
Conditions: for Cer16 / Cer18 / Cer20 / Cer22 / Cer24 / Cer24:1 / Cer total / S1P / SM16 / SM18 / SM20 / SM22 / SM24 / SM24:1 / SM total / Sph / ratio total SM/Cer: HeLa, 42h, single replicates; for Cer16 / Cer18 / Cer20 / Cer22 / Cer24 / Cer24:1 / Cer total / S1P / SM16 / SM18 / SM20 / SM22 / SM24 / SM24:1 / SM total / Sph: 500.000 cells per sample
Method in brief: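 HeLa cells were plated in six-well plates at 177000 cells per well in DMEM containing 4mM L-glutamine, 10% FBS and 1% Penicillin-Streptomycin, then exposed to inhibitor. Harvested cells were adjusted to 500.000 per sample, extracted with methanol/chloroform (2:1) containing Cer17 and d31-SM16 internal standards, and quantified for ceramides and sphingomyelins by C8 reversed-phase HPLC coupled to ESI+ triple-quadrupole MS/MS.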

Cc1cc(C2=NOC(c3cc(Cl)cc(Cl)c3)(C(F)(F)F)C2)ccc1C(=O)NCC(=O)NCC(F)(F)F (stereo not shown) [20D5, Fluralaner]
effect on total sphingomyelin (HeLa cells, 48 hours, serum-reduced medium): dose‐dependent reduction
Cer16 (1 µM): 45,48 pmol/sample and 40,19 pmol/sample and 39,73 pmol/sample
Cer18 (1 µM): 6,03 pmol/sample and 4,12 pmol/sample and 3,84 pmol/sample
Cer20 (1 µM): 2,67 pmol/sample and 1,37 pmol/sample and 1,12 pmol/sample
Cer22 (1 µM): 11,46 pmol/sample and 9,24 pmol/sample and 9,12 pmol/sample
Cer24 (1 µM): 40,67 pmol/sample and 36,50 pmol/sample and 37,27 pmol/sample
Cer24:1 (1 µM): 46,05 pmol/sample and 40,74 pmol/sample and 40,44 pmol/sample
Cer total (1 µM): 152,37 pmol/sample and 131,71 pmol/sample and 131,97 pmol/sample
S1P (1 µM): 1,21 pmol/sample and 1,34 pmol/sample and 1,10 pmol/sample
SM16 (1 µM): 1625,68 pmol/sample and 1717,57 pmol/sample and 1686,01 pmol/sample
SM18 (1 µM): 54,98 pmol/sample and 59,04 pmol/sample and 56,68 pmol/sample
SM20 (1 µM): 18,10 pmol/sample and 18,45 pmol/sample and 17,14 pmol/sample
SM22 (1 µM): 110,98 pmol/sample and 111,56 pmol/sample and 111,04 pmol/sample
SM24 (1 µM): 197,09 pmol/sample and 206,21 pmol/sample and 199,98 pmol/sample
SM24:1 (1 µM): 621,75 pmol/sample and 662,66 pmol/sample and 645,68 pmol/sample
SM total (1 µM): 2628,58 pmol/sample and 2775,49 pmol/sample and 2716,53 pmol/sample
Sph (1 µM): 3,74 pmol/sample and 3,07 pmol/sample and 3,46 pmol/sample
ratio total SM/Cer (1 µM): 19,9 and 18,2 and 20,6
Cer16 (2.5 µM): 40,44 pmol/sample and 43,49 pmol/sample and 36,97 pmol/sample
Cer18 (2.5 µM): 4,61 pmol/sample and 4,98 pmol/sample and 3,95 pmol/sample
Cer20 (2.5 µM): 1,33 pmol/sample and 1,40 pmol/sample and 1,09 pmol/sample
Cer22 (2.5 µM): 9,74 pmol/sample and 10,99 pmol/sample and 8,69 pmol/sample
Cer24 (2.5 µM): 35,83 pmol/sample and 40,22 pmol/sample and 34,92 pmol/sample
Cer24:1 (2.5 µM): 37,47 pmol/sample and 43,87 pmol/sample and 37,54 pmol/sample
Cer total (2.5 µM): 129,42 pmol/sample and 144,94 pmol/sample and 123,16 pmol/sample
S1P (2.5 µM): 1,21 pmol/sample and 1,29 pmol/sample (2×)
SM16 (2.5 µM): 1311,55 pmol/sample and 1447,18 pmol/sample and 1450,27 pmol/sample
SM18 (2.5 µM): 48,19 pmol/sample and 50,02 pmol/sample and 51,79 pmol/sample
SM20 (2.5 µM): 16,11 pmol/sample and 17,46 pmol/sample and 16,39 pmol/sample
SM22 (2.5 µM): 98,76 pmol/sample and 109,23 pmol/sample and 102,97 pmol/sample
SM24 (2.5 µM): 179,29 pmol/sample and 202,61 pmol/sample and 193,22 pmol/sample
SM24:1 (2.5 µM): 587,13 pmol/sample and 553,18 pmol/sample and 603,33 pmol/sample
SM total (2.5 µM): 2401,78 pmol/sample and 2207,08 pmol/sample and 2429,82 pmol/sample
Sph (2.5 µM): 3,04 pmol/sample and 3,17 pmol/sample and 2,91 pmol/sample
ratio total SM/Cer (2.5 µM): 19,5 and 17,1 and 16,8
Cer16 (5 µM): 48,26 pmol/sample and 50,29 pmol/sample and 47,46 pmol/sample
Cer18 (5 µM): 5,41 pmol/sample and 5,92 pmol/sample and 5,34 pmol/sample
Cer20 (5 µM): 1,35 pmol/sample and 1,41 pmol/sample and 1,29 pmol/sample
Cer22 (5 µM): 9,51 pmol/sample and 10,83 pmol/sample and 9,59 pmol/sample
Cer24 (5 µM): 33,23 pmol/sample and 39,15 pmol/sample and 38,78 pmol/sample
Cer24:1 (5 µM): 35,26 pmol/sample and 38,24 pmol/sample and 35,25 pmol/sample
Cer total (5 µM): 133,01 pmol/sample and 145,85 pmol/sample and 137,71 pmol/sample
S1P (5 µM): 1,32 pmol/sample and 1,22 pmol/sample and 1,19 pmol/sample
SM16 (5 µM): 1128,33 pmol/sample and 1262,96 pmol/sample and 1233,63 pmol/sample
SM18 (5 µM): 43,19 pmol/sample and 47,39 pmol/sample and 44,90 pmol/sample
SM20 (5 µM): 13,45 pmol/sample and 15,19 pmol/sample and 13,75 pmol/sample
SM22 (5 µM): 74,74 pmol/sample and 85,38 pmol/sample and 82,05 pmol/sample
SM24 (5 µM): 132,70 pmol/sample and 158,23 pmol/sample and 155,99 pmol/sample
SM24:1 (5 µM): 419,73 pmol/sample and 481,61 pmol/sample and 461,72 pmol/sample
SM total (5 µM): 1812,15 pmol/sample and 2050,77 pmol/sample and 1992,04 pmol/sample
Sph (5 µM): 3,25 pmol/sample and 3,29 pmol/sample and 4,27 pmol/sample
ratio total SM/Cer (5 µM): 13,6 and 14,1 and 14,5

CCCCCCCCCCCC(=O)NC(CO)CC(O)c1ccccc1 (stereo not shown) [HPA-12, N-(3Hydroxy-1-hydroxymethyl-3-phenylpropyl)-dodecamide]
Cer16 (1 µM): 48,20 pmol/sample and 45,94 pmol/sample and 44,92 pmol/sample
Cer18 (1 µM): 3,35 pmol/sample and 2,85 pmol/sample and 3,38 pmol/sample
Cer20 (1 µM): 1,15 pmol/sample and 0,88 pmol/sample and 1,18 pmol/sample
Cer22 (1 µM): 8,47 pmol/sample and 7,59 pmol/sample and 8,53 pmol/sample
Cer24 (1 µM): 25,47 pmol/sample and 26,70 pmol/sample and 25,58 pmol/sample
Cer24:1 (1 µM): 64,01 pmol/sample and 60,79 pmol/sample and 68,53 pmol/sample
Cer total (1 µM): 150,65 pmol/sample and 143,74 pmol/sample and 153,13 pmol/sample
S1P (1 µM): 1,34 pmol/sample and 1,27 pmol/sample and 1,52 pmol/sample
SM16 (1 µM): 1695,91 pmol/sample and 1668,53 pmol/sample and 1609,69 pmol/sample
SM18 (1 µM): 47,55 pmol/sample and 44,39 pmol/sample and 46,43 pmol/sample
SM20 (1 µM): 15,20 pmol/sample and 14,34 pmol/sample and 14,30 pmol/sample
SM22 (1 µM): 91,42 pmol/sample and 86,76 pmol/sample and 85,97 pmol/sample
SM24 (1 µM): 147,79 pmol/sample and 134,40 pmol/sample and 140,17 pmol/sample
SM24:1 (1 µM): 708,14 pmol/sample and 660,22 pmol/sample and 659,25 pmol/sample
SM total (1 µM): 2706,02 pmol/sample and 2608,64 pmol/sample and 2555,82 pmol/sample
Sph (1 µM): 3,87 pmol/sample and 3,57 pmol/sample and 3,94 pmol/sample
ratio total SM/Cer (1 µM): 17,7 and 17,3 and 17,8
Cer16 (2.5 µM): 45,72 pmol/sample and 45,34 pmol/sample and 45,94 pmol/sample
Cer18 (2.5 µM): 2,82 pmol/sample and 3,05 pmol/sample and 2,77 pmol/sample
Cer20 (2.5 µM): 0,99 pmol/sample and 0,90 pmol/sample and 0,94 pmol/sample
Cer22 (2.5 µM): 8,93 pmol/sample (2×) and 7,27 pmol/sample
Cer24 (2.5 µM): 29,39 pmol/sample and 22,20 pmol/sample and 31,70 pmol/sample
Cer24:1 (2.5 µM): 64,09 pmol/sample and 55,48 pmol/sample and 66,75 pmol/sample
Cer total (2.5 µM): 151,94 pmol/sample and 134,23 pmol/sample and 157,03 pmol/sample
S1P (2.5 µM): 1,60 pmol/sample and 1,73 pmol/sample and 1,58 pmol/sample
SM16 (2.5 µM): 1489,44 pmol/sample and 1440,97 pmol/sample and 1448,69 pmol/sample
SM18 (2.5 µM): 53,85 pmol/sample and 43,84 pmol/sample and 45,37 pmol/sample
SM20 (2.5 µM): 20,27 pmol/sample and 13,88 pmol/sample and 14,55 pmol/sample
SM22 (2.5 µM): 75,95 pmol/sample and 76,48 pmol/sample and 75,20 pmol/sample
SM24 (2.5 µM): 129,06 pmol/sample and 114,60 pmol/sample and 121,10 pmol/sample
SM24:1 (2.5 µM): 524,32 pmol/sample and 581,92 pmol/sample and 555,40 pmol/sample
SM total (2.5 µM): 2229,23 pmol/sample and 2350,50 pmol/sample and 2245,18 pmol/sample
Sph (2.5 µM): 2,13 pmol/sample and 3,27 pmol/sample and 2,40 pmol/sample
ratio total SM/Cer (2.5 µM): 14,2 and 15,5 and 16,7
Cer16 (5 µM): 43,83 pmol/sample and 46,26 pmol/sample and 43,34 pmol/sample
Cer18 (5 µM): 2,50 pmol/sample and 2,62 pmol/sample and 2,51 pmol/sample
Cer20 (5 µM): 0,74 pmol/sample and 0,81 pmol/sample and 0,73 pmol/sample
Cer22 (5 µM): 6,88 pmol/sample and 6,54 pmol/sample and 6,85 pmol/sample
Cer24 (5 µM): 20,93 pmol/sample and 21,64 pmol/sample and 23,60 pmol/sample
Cer24:1 (5 µM): 53,37 pmol/sample and 55,90 pmol/sample and 57,30 pmol/sample
Cer total (5 µM): 128,26 pmol/sample and 133,78 pmol/sample and 134,34 pmol/sample
S1P (5 µM): 1,43 pmol/sample and 1,97 pmol/sample and 1,45 pmol/sample
SM16 (5 µM): 1306,31 pmol/sample and 1249,58 pmol/sample and 1356,77 pmol/sample
SM18 (5 µM): 41,78 pmol/sample and 39,06 pmol/sample and 41,13 pmol/sample
SM20 (5 µM): 12,76 pmol/sample and 12,48 pmol/sample and 12,54 pmol/sample
SM22 (5 µM): 68,87 pmol/sample and 67,07 pmol/sample and 70,68 pmol/sample
SM24 (5 µM): 101,53 pmol/sample and 101,48 pmol/sample and 113,95 pmol/sample
SM24:1 (5 µM): 471,40 pmol/sample and 487,46 pmol/sample and 521,22 pmol/sample
SM total (5 µM): 2002,66 pmol/sample and 1957,13 pmol/sample and 2116,29 pmol/sample
Sph (5 µM): 3,33 pmol/sample and 3,81 pmol/sample and 3,47 pmol/sample
ratio total SM/Cer (5 µM): 15,6 and 14,6 and 15,8
